Patent US20240293289A1, “Multifunctional Dental Adhesives and Uses Thereof” (University of Maryland, Baltimore, priority 2023, published 2024)

Target: MMP-9 (Homo sapiens, UniProt P14780)
Assay: SENSOLYTE Generic MMP Assay Kit, MMP inhibition
Format: biochemical
Method: For the MMPs inhibition assay, SENSOLYTE Generic MMP Assay Kit Colorimetric was used. The MMP thiopeptide substrate solution was diluted to 0.2 mM with the supplied assay buffer in a 1:50 volume ratio. A 96-well plate was used for the assay using four replicates per group. In each well, 40 μL of MMP-9 (20 ng/well), 10 μL of CHX (1 mg/mL) at serial dilutions, and 50 μL of thiopeptide substrate solution were mixed. […] was measured using a plate reader (SpectraMax M5, Molecular Devices, Sunnyvale, CA, USA) at Ex/Em-490 nm/540 nm with a kinetic mode every 5 min for 60 min (20). The substrate control group was set as a background, where its absorbance was subtracted from other wells. The percentage of MMP inhibition was calculated according to equation 5: […]

Sequence of MMP-9 (P14780 94-707): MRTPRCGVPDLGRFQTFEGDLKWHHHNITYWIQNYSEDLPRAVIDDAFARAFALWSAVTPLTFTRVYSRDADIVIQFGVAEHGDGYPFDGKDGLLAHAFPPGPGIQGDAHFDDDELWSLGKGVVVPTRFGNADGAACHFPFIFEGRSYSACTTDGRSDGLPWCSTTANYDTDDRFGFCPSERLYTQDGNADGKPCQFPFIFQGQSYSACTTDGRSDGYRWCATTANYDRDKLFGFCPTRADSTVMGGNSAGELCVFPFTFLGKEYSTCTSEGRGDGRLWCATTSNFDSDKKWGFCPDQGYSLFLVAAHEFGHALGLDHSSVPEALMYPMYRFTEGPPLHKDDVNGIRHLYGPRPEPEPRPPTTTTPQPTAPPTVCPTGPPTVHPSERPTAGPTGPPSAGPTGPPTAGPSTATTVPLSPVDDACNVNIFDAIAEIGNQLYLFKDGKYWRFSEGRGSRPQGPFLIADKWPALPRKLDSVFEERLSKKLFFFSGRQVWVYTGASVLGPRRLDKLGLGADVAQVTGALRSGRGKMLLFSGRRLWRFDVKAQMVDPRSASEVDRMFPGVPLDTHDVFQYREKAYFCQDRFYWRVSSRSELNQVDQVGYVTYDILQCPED

- inhibition at 1000 µg/mL (1 mg/mL CHX): 99.8%
- inhibition of MMP-9 (less than 1 mg/mL of CHX): substantial inhibition
SMILES: [H]/N=C(\N/C(=N/[H])NCCCCCCNC(=N)NC(=N)Nc1ccc(Cl)cc1)Nc1ccc(Cl)cc1 [CHX, Chlorhexidine]
